Laboratory results taken from ChEMBL document CHEMBL1201862, “PubChem BioAssay data set” (2004).
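Growth conditions: 96-well plates. Treatment: test compound, 48 hours, 5 concentrations. Analysis: linear interpolation between bracketing concentrations; unreached endpoints set to highest concentration. GI50: concentration for 50% inhibition of growth.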 Calls of active or inactive are those of the source. Rule as the data show it: active = GI50 up to about 1.1 µM and inactive = higher.

Assays:
Assay in all cases: DTP human tumour cell line panel, 48 h
786-0 = system: 786-0
ACHN = system: ACHN
HL-60 = system: HL-60
HOP-92 = system: HOP-92
K562 = system: K562
M14 = system: M14
MDA-MB-231 = system: MDA-MB-231
NCI-H226 = system: NCI-H226
NCI-H23 = system: NCI-H23
OVCAR-4 = system: OVCAR-4
OVCAR-8 = system: OVCAR-8
RPMI-8226 = system: RPMI-8226
SF-539 = system: SF-539
SK-MEL-28 = system: SK-MEL-28
SK-MEL-5 = system: SK-MEL-5
SR = system: SR
UACC-257 = system: UACC-257
KM12 = system: KM12
MDA-MB-435 = system: MDA-MB-435
SF-268 = system: SF-268

Measured: GI50

C#CCOCCCC(=O)O
inactive: 786-0 > 100 µM | ACHN > 100 µM | HL-60 > 100 µM | HOP-92 > 100 µM | K562 > 100 µM | M14 > 100 µM | MDA-MB-231 > 100 µM | NCI-H226 > 100 µM | NCI-H23 > 100 µM | OVCAR-4 > 100 µM | OVCAR-8 > 100 µM | RPMI-8226 > 100 µM | SF-539 > 100 µM | SK-MEL-28 > 100 µM | SK-MEL-5 > 100 µM | SR > 100 µM | UACC-257 > 100 µM

NN(CC(=O)O)CC(=O)O
inactive: 786-0 > 100 µM | ACHN > 100 µM | HL-60 > 100 µM | K562 > 100 µM | KM12 > 100 µM | M14 > 100 µM | MDA-MB-231 > 100 µM | MDA-MB-435 > 100 µM | NCI-H226 > 100 µM | NCI-H23 > 100 µM | OVCAR-4 > 100 µM | OVCAR-8 > 100 µM | RPMI-8226 > 100 µM | SF-268 > 100 µM | SF-539 > 100 µM | SK-MEL-28 > 100 µM | SK-MEL-5 > 100 µM | UACC-257 > 100 µM

CCOC(=O)C(=Cc1ccc(Oc2ccccc2)cc1)C(=O)OCC
inactive: 786-0 1.85 µM | ACHN 6.3 µM | HL-60 1.73 µM | HOP-92 4.03 µM | K562 1.87 µM | KM12 5.98 µM | M14 3.82 µM | MDA-MB-435 2.58 µM | NCI-H226 3.17 µM | NCI-H23 2.58 µM | OVCAR-4 7.59 µM | OVCAR-8 2.19 µM | RPMI-8226 2.79 µM | SF-268 3.32 µM | SF-539 3.84 µM | SK-MEL-28 3.56 µM | SK-MEL-5 1.98 µM | SR 2.52 µM | UACC-257 2.42 µM

O=C(O)CCCc1nc2c(n1Cc1ccccc1)C(=O)c1ccccc1C2=O
inactive: 786-0 > 100 µM | ACHN 45.2 µM | HL-60 29.1 µM | HOP-92 48.9 µM | K562 42.7 µM | KM12 43.7 µM | M14 3.72 µM | MDA-MB-231 47.9 µM | NCI-H23 31.6 µM | OVCAR-4 20.2 µM | OVCAR-8 36.6 µM | RPMI-8226 18.7 µM | SF-268 26.1 µM | SF-539 69.8 µM | SK-MEL-28 > 100 µM | SR 44.7 µM | UACC-257 25 µM

CCOc1ccc(/C=C2\N=C(c3ccccc3)OC2=O)cc1
inactive: ACHN > 100 µM | HL-60 > 100 µM | HOP-92 > 100 µM | K562 > 100 µM | KM12 > 100 µM | M14 > 100 µM | MDA-MB-435 > 100 µM | NCI-H226 > 100 µM | NCI-H23 > 100 µM | OVCAR-4 > 100 µM | OVCAR-8 > 100 µM | RPMI-8226 > 100 µM | SF-268 > 100 µM | SF-539 > 100 µM | SK-MEL-28 > 100 µM | SK-MEL-5 > 100 µM | SR > 100 µM | UACC-257 > 100 µM

COc1ccc(C2CC(=O)CC(c3ccc(OC)cc3)C23C(=O)NC(=S)NC3=O)cc1 (stereo not drawn)
inactive: 786-0 > 100 µM | ACHN > 100 µM | HL-60 > 100 µM | HOP-92 > 100 µM | K562 > 100 µM | KM12 > 100 µM | M14 > 100 µM | MDA-MB-435 > 100 µM | NCI-H226 > 100 µM | NCI-H23 > 100 µM | OVCAR-4 > 100 µM | OVCAR-8 > 100 µM | RPMI-8226 > 10 µM | SF-268 > 100 µM | SF-539 > 100 µM | SK-MEL-28 > 100 µM | SK-MEL-5 > 100 µM | SR > 100 µM | UACC-257 > 100 µM
